The text below walks through data of US11104630B2, “Synthesis of mono-chlorinated acetophenone” (SIEGFRIED AG, priority 2017, dated 2021).

A short description of the data set: Solubility of the starting material in the solvent. Format: physicochemical. Conditions: solvent MTBE, 20° C., until clear solution. As for the experimental part:
Solubility of the Starting Material in the Solvent
To 1 g of HAP is added 5 ml of solvent. The mixture is stirred in a water bath at 20° C. The solvent is further slowly added under stirring until a clear solution appears.
The amount of used solvent is noted.

Consider `CC(=O)c1cccc(O)c1` [HAP, 3-hydroxy-acetophenon], for which the “Solvent in ml per g HAP” value is given as 9 ml per g HAP.
